Assay results taken from PubChem BioAssay (NCI).
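Assay format: 96-well plates, 48-hour exposure. The concentration for full growth arrest is given as TGI.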

Key:
Assay in all cases: NCI-60 cell line screen, 48 h
[1] = test system: IGROV1 ovarian
[2] = test system: RXF 393 renal
[3] = test system: SF-295 CNS
[4] = test system: LOX IMVI melanoma
[5] = test system: HCC-2998 colon
[6] = test system: HS 578T breast
[7] = test system: HL-60(TB) leukemia
[8] = test system: RPMI-8226 leukemia
[9] = test system: NCI/ADR-RES ovarian
[10] = test system: UO-31 renal
[11] = test system: OVCAR-8 ovarian
[12] = test system: SN12C renal
[13] = test system: OVCAR-4 ovarian
[14] = test system: SK-MEL-28 melanoma
[15] = test system: A498 renal
[16] = test system: SF-539 CNS
[17] = test system: MDA-MB-231 breast
[18] = test system: 786-0 renal
[19] = test system: NCI-H226 lung
[20] = test system: U251 CNS
[21] = test system: OVCAR-3 ovarian
[22] = test system: NCI-H460 lung
[23] = test system: SK-OV-3 ovarian
[24] = test system: SF-268 CNS
[25] = test system: HT29 colon
[26] = test system: T-47D breast
[27] = test system: CCRF-CEM leukemia
[28] = test system: OVCAR-5 ovarian
[29] = test system: PC-3 prostate
[30] = test system: COLO 205 colon
[31] = test system: TK-10 renal
[32] = test system: KM12 colon
[33] = test system: HCT-116 colon
[34] = test system: HOP-92 NSCLC
[35] = test system: HOP-62 NSCLC
[36] = test system: MDA-N
[37] = test system: BT-549 breast
[38] = test system: MOLT-4 leukemia
[39] = test system: SK-MEL-2 melanoma
[40] = test system: SNB-19 CNS
[41] = test system: UACC-62 melanoma
[42] = test system: SR leukemia
[43] = test system: MDA-MB-435
[44] = test system: SNB-75 CNS
[45] = test system: ACHN renal
[46] = test system: A549 NSCLC
[47] = test system: UACC-257 melanoma
[48] = test system: DU-145 prostate
[49] = test system: M14 melanoma
[50] = test system: EKVX NSCLC
[51] = test system: MCF7 breast
[52] = test system: NCI-H23 lung
[53] = test system: SW-620 colon
[54] = test system: K-562 leukemia
[55] = test system: HCT-15 colon
[56] = test system: CAKI-1 renal
[57] = test system: MALME-3M melanoma
[58] = test system: SK-MEL-5 melanoma
[59] = test system: NCI-H522 lung

SMILES: Cc1cn(CCCCCOC(=O)NC(CCCN=C(N)N)C(=O)O)c(=O)[nH]c1=O (stereo not drawn)
- TGI [1]: > 100 µM
- TGI [2]: > 100 µM
- TGI [3]: > 100 µM
- TGI [4]: > 100 µM
- TGI [5]: > 100 µM
- TGI [6]: 71.9 µM
- TGI [7]: > 100 µM
- TGI [8]: 57 µM
- TGI [9]: > 100 µM
- TGI [10]: > 100 µM
- TGI [11]: > 100 µM
- TGI [12]: > 100 µM
- TGI [13]: > 100 µM
- TGI [14]: > 100 µM
- TGI [15]: 74.3 µM
- TGI [16]: > 100 µM
- TGI [17]: > 100 µM
- TGI [18]: > 100 µM
- TGI [19]: > 100 µM
- TGI [20]: > 100 µM
- TGI [21]: > 100 µM
- TGI [22]: > 100 µM
- TGI [23]: > 100 µM
- TGI [24]: > 100 µM
- TGI [25]: 60.1 µM
- TGI [26]: > 100 µM
- TGI [27]: > 100 µM
- TGI [28]: > 100 µM
- TGI [29]: > 100 µM
- TGI [30]: 63.2 µM
- TGI [31]: > 100 µM
- TGI [32]: > 100 µM
- TGI [33]: > 100 µM
- TGI [34]: > 100 µM
- TGI [35]: > 100 µM
- TGI [36]: 31.3 µM
- TGI [37]: > 100 µM
- TGI [38]: > 100 µM
- TGI [39]: > 100 µM
- TGI [40]: > 100 µM
- TGI [41]: > 100 µM
- TGI [42]: 30.8 µM
- TGI [43]: 47.5 µM
- TGI [44]: > 100 µM
- TGI [45]: > 100 µM
- TGI [46]: > 100 µM
- TGI [47]: > 100 µM
- TGI [48]: > 100 µM
- TGI [49]: > 100 µM
- TGI [50]: > 100 µM
- TGI [51]: > 100 µM
- TGI [52]: > 100 µM
- TGI [53]: > 100 µM
- TGI [54]: > 100 µM
- TGI [55]: > 100 µM
- TGI [56]: > 100 µM

SMILES: O=c1c2c(-c3ccccc3)onc2n(-c2ccccc2)c(=O)n1-c1ccccc1
- TGI [1]: 52.1 µM
- TGI [2]: > 100 µM
- TGI [3]: > 100 µM
- TGI [4]: > 100 µM
- TGI [5]: 33.1 µM
- TGI [6]: 89.8 µM
- TGI [8]: > 100 µM
- TGI [9]: 43.2 µM
- TGI [10]: 30.4 µM
- TGI [11]: 45.5 µM
- TGI [12]: > 100 µM
- TGI [13]: > 100 µM
- TGI [15]: > 100 µM
- TGI [16]: > 100 µM
- TGI [17]: > 100 µM
- TGI [18]: > 100 µM
- TGI [19]: 71 µM
- TGI [20]: > 100 µM
- TGI [21]: 38.6 µM
- TGI [22]: 36.8 µM
- TGI [23]: > 100 µM
- TGI [24]: > 100 µM
- TGI [25]: 45.3 µM
- TGI [26]: > 100 µM
- TGI [27]: > 100 µM
- TGI [28]: 44 µM
- TGI [57]: 34.5 µM
- TGI [29]: 82 µM
- TGI [30]: > 100 µM
- TGI [31]: 58.2 µM
- TGI [32]: 37 µM
- TGI [33]: > 100 µM
- TGI [34]: > 100 µM
- TGI [35]: 54.9 µM
- TGI [36]: > 100 µM
- TGI [58]: > 100 µM
- TGI [37]: 39.5 µM
- TGI [38]: > 100 µM
- TGI [39]: 25 µM
- TGI [40]: > 100 µM
- TGI [41]: 32 µM
- TGI [42]: > 100 µM
- TGI [43]: > 100 µM
- TGI [44]: 84.2 µM
- TGI [45]: > 100 µM
- TGI [46]: > 100 µM
- TGI [47]: 53 µM
- TGI [49]: 49.7 µM
- TGI [50]: 59.5 µM
- TGI [51]: > 100 µM
- TGI [52]: 47.8 µM
- TGI [59]: 33.2 µM
- TGI [53]: > 100 µM
- TGI [54]: > 100 µM
- TGI [55]: 39.1 µM
- TGI [56]: > 100 µM

SMILES: CSc1ncnc2c1cnn2CCCCO
- TGI [1]: > 100 µM
- TGI [2]: > 100 µM
- TGI [3]: > 100 µM
- TGI [4]: > 100 µM
- TGI [5]: > 100 µM
- TGI [6]: > 100 µM
- TGI [7]: > 100 µM
- TGI [8]: > 100 µM
- TGI [10]: > 100 µM
- TGI [12]: > 100 µM
- TGI [13]: > 100 µM
- TGI [14]: > 100 µM
- TGI [15]: > 100 µM
- TGI [16]: > 100 µM
- TGI [17]: > 100 µM
- TGI [18]: > 100 µM
- TGI [19]: > 100 µM
- TGI [20]: > 100 µM
- TGI [21]: > 100 µM
- TGI [22]: > 100 µM
- TGI [23]: > 100 µM
- TGI [24]: > 100 µM
- TGI [25]: > 100 µM
- TGI [26]: > 100 µM
- TGI [27]: > 100 µM
- TGI [28]: > 100 µM
- TGI [57]: > 100 µM
- TGI [29]: > 100 µM
- TGI [30]: > 100 µM
- TGI [31]: > 100 µM
- TGI [32]: > 100 µM
- TGI [33]: > 100 µM
- TGI [34]: > 100 µM
- TGI [35]: > 100 µM
- TGI [36]: > 100 µM
- TGI [58]: > 100 µM
- TGI [37]: > 100 µM
- TGI [38]: > 100 µM
- TGI [39]: > 100 µM
- TGI [40]: > 100 µM
- TGI [41]: > 100 µM
- TGI [42]: > 100 µM
- TGI [43]: > 100 µM
- TGI [45]: > 100 µM
- TGI [46]: > 100 µM
- TGI [47]: > 100 µM
- TGI [48]: > 100 µM
- TGI [49]: > 100 µM
- TGI [50]: > 100 µM
- TGI [51]: > 100 µM
- TGI [52]: > 100 µM
- TGI [59]: > 100 µM
- TGI [53]: > 100 µM
- TGI [54]: > 100 µM
- TGI [55]: > 100 µM
- TGI [56]: > 100 µM
